Data from PubChem BioAssay AID179 (DTP/NCI, 2004).
Several values for one entry are separate records, joined by “and”; a condition that tells them apart may be missing. Identical values can stand only once. Activity calls are given as the source filed them.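 The calls were made as follows: active = compounds giving half or more protection of infected cells from virus-caused growth loss, again on retest; inactive = the rest.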

Tested on: CEM cells HIV-1 protection, formazan growth assay
Test: NCI AIDS Antiviral Assay
Details: for IC50: measured here: growth of uninfected CEM cells
In short: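 Protection of CEM cells against HIV-1 was scored from cell growth (soluble formazan) across five concentrations, with parallel uninfected cells. Lack of protection may reflect toxicity.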

Row | SMILES | EC50 [µM] | IC50 | outcome
1 | CCCn1c(SCCSc2c3ccccc3c(-c3nc(F)nc(F)n3)n2CCC)c2ccccc2c1-c1nc(F)nc(F)n1 | > 4.07 | 3.98 µM | 
2 | NC(=O)NNC/C(Cl)=C(\Cl)C(=O)O | > 1100 | 191 µM | 
3 | O=C(O)c1cnc2[nH]ccn2c1=O | > 200 | > 200 µM | 
4 | CN(C)Nc1cc(=O)[nH]c(=O)[nH]1 | > 200 | > 200 µM | 
5 | c1ccc2[nH]c(C3=NCCN3)nc2c1 | > 53.7 | > 53.7 µM | 
6 | Cc1cc(=O)oc2cc(O/C(=C\c3ccccc3)c3nc4ccccc4c(=O)o3)ccc12 |  |  | inactive
7 | Cc1cc2nc3c(C(O)C(O)C(O)CO)nn(-c4ccc(F)cc4)c3nc2cc1C (stereo unspecified) | 89.1 | > 200 µM | 
8 | COC(=O)c1nc(N)[nH]c(=O)c1CCCCCc1c(C(=O)OC)nc(N)[nH]c1=O | > 17.8 | > 17.8 µM | 
9 | Cc1cn(C(C)OCCN(OC(=O)Oc2ccccc2)C(=O)Oc2ccccc2)c(=O)[nH]c1=O (stereo unspecified) | > 200 | > 200 µM | 
10 | N#Cc1c(-c2ccccc2)cc(-c2ccc(N)cc2)[nH]c1=O | > 18.2 | > 18.2 µM | 
11 | O=C1C(C(c2ccc([N+](=O)[O-])cc2)N2CCOCC2)=C(O)C(c2ccccc2)N1c1ccccc1 (stereo unspecified) | > 100 | 24.5 µM | 
12 | c1ccc(-c2cnc3cccnc3n2)cc1 | > 200 | 174 µM | 
13 | COC(=O)C1(NC(=O)C(CC(=O)OCc2ccccc2)NC(=O)OCc2ccccc2)CCCCCCC1 (stereo unspecified) | > 200 | 11.7 µM | 
14 | Nc1ncnc2nc(-c3ccc(C[P+](c4ccccc4)(c4ccccc4)c4ccccc4)cc3)[nH]c12 | > 200 | > 200 µM | 
15 | O=C(CCc1cccc(O)c1)NCCc1ccc(O)cc1 | 123 | > 200 µM | 
16 | Fc1ccc2c(c1)SC1Oc3ccccc3-c3c1c-2nn3-c1ccccc1 (stereo unspecified) | > 19.5 | > 19.5 µM | 
17 | CCOP(=O)(OCC)C(NC(=O)C(C(F)(F)F)C(F)(F)F)c1ccccc1 (stereo unspecified) | > 200 | 24.5 µM | 
18 | N#C/C(=C/c1cccc(Oc2ccccc2)c1)c1ccccc1 | > 6.76 | > 6.76 µM | 
19 | CN(CCO)c1nc2c(c(=O)[nH]1)CNCC2 | > 288 | > 288 µM | 
20 | C[Si](C)(C)C#C/C(CO)=C(/C#C[Si](C)(C)C)CO | > 33.9 | > 33.9 µM | 
21 | COc1nc2ncn(C(C)=O)c2c(=O)n1C |  |  | inactive
22 | COc1cc(Nc2cnc3cc(F)c(F)cc3n2)cc(OC)c1OC | > 200 | > 200 µM | 
23 | O=C1NC(=O)C(CCSSCCC2NC(=O)NC2=O)N1 (stereo unspecified) | > 200 | > 200 µM | 

Row | SMILES | EC50 [µM] | IC50 | outcome
24 | CNc1ncc(-c2nnnn2-c2ccccc2)c(CN(C)C)n1 | > 200 | > 200 µM | 
25 | CSc1sc2ccccc2[s+]1 |  |  | inactive
26 | Cc1ccc(N2CCc3c(C)c(C#N)c4nc5ccccc5n4c32)cc1 | > 200 | > 200 µM | 
27 | COc1ccccc1NC(=O)C1=C(C)NC(C)=C(C(=O)Nc2ccccc2OC)C1c1ccc(C)cc1 | > 7.59 | > 7.59 µM | 
28 | COC(=O)N/N=C(\C)C(CN1CCOCC1)C(c1ccccc1)c1cc2ccccc2oc1=O (stereo unspecified) | > 83.2 | 61.7 µM | 
29 | CN(C)CCSc1cccc(-c2cc(-c3cccc(SCCN(C)C)c3)ncn2)c1 | > 21.9 | 8.71 µM | 
30 | CSc1nc(C)c(CCOC(C)=O)c(Cl)n1 | > 200 | > 200 µM | 
31 | C#CC(C)(C)Oc1cc(OC)c2c(=O)c3ccccc3n(C)c2c1 | > 200 | 11 µM | 
32 | c1cc2sc1CSCCSCCSC2 | > 38 | > 38 µM | 
33 | COCCCCCCCCCCCC(=O)O | > 200 | > 200 µM | 
34 | C=C(C)[C@@H]1CC=C2[C@H](O)CC(O)C(C)[C@@]2(C)C1 (stereo partly specified) | > 209 | 51.3 µM | 
35 | C=CCO/N=C/c1cc(NC(=S)c2ccoc2C)ccc1Cl | 0.0186 | 15.5 µM | 
36 | O=Nn1ccccc1=Nc1ccccc1 | > 200 | 117 µM | 
37 | CN(C)c1ccc2nc(C(=O)O)c(=O)n(C)c2c1 | > 200 | > 200 µM | 
38 | O=C(Nn1c(-c2ccccc2)nc2ccccc2c1=O)c1ccccc1O | > 200 | 17.4 µM | 
39 | CN(/N=C\c1ccc2ccccc2c1)C1=NCCCN1 | > 200 | 10 µM | 
40 | CCOC(=O)CCC(NC(=O)c1ccc(Nc2cnc3cc(C(F)(F)F)ccc3n2)cc1)C(=O)OCC (stereo unspecified) | > 200 | 191 µM | 
41 | COC1=CC2C3Cc4c(-c5cc(OC)c(O)c6c5CC5C7C=C(OC)C(=O)CC67CCN5C)cc(OC)c(O)c4C2(CCN3C)CC1=O (stereo unspecified) | > 200 | > 200 µM and 132 µM and 117 µM | 
42 | O=S1(=O)OCCOS(=O)(=O)C1C1c2ccccc2-c2ccccc21 | > 200 | 30.9 µM | 
43 | COC(=O)c1c2c(cc3c1CC1(Cc4ccc(C(C)=O)cc4C1)C3)CCC2 (stereo unspecified) | > 200 | > 200 µM | 
44 | C[N+](C)(C)CC(=O)N/N=C(/CC1OC(=O)c2ccccc21)c1ccccc1O (stereo unspecified) | > 120 | 77.6 µM | 
45 | CC(=O)N(C)OC(=O)CC(=O)c1ccccc1 | > 776 | 661 µM | 
46 | CC1CCCN2C(=O)CN(CCc3ccccc3)CC(=O)N12 (stereo unspecified) |  |  | inactive

Row | SMILES | EC50 [µM] | IC50 | outcome
47 | N#CCCC(C=O)(CCC#N)CCC#N | > 200 | > 200 µM | 
48 | CC1(C)c2ccccc2-c2nc3ccccc3c3c2C1OC3=O (stereo unspecified) | > 832 | > 832 µM | 
49 | CCOC(=O)/C(=C/c1ccc(N(C)C)cc1)C(=O)c1ccccc1 | > 8.51 | > 8.51 µM | 
50 | OCC1CC2c3[nH]c4ccccc4c3CCN2C1 (stereo unspecified) | > 282 | > 282 µM | 
51 | CCOc1c2c(cc3c1C(=O)c1c(OC)cccc1C3=O)C=C(OC)CC2 | > 25.1 | 13.5 µM | 
52 | O=c1[nH]nc(Cc2ccccc2)n1O | > 200 | > 200 µM | 
53 | C(=C\C(Sc1ccccc1)c1ccccc1)/NNC1=NC(c2ccccc2)C(c2ccccc2)=NN1 (stereo unspecified) | > 14.8 | > 14.8 µM | 
54 | COC(=O)CC(CNC(=O)OCc1ccccc1)OCc1ccc(OC)cc1 (stereo unspecified) | > 200 | > 200 µM | 
55 | CC1CC2C(=O)N(c3ccccc3)C(=O)C2c2[nH]c3ccccc3c21 (stereo unspecified) |  |  | inactive
56 | COc1cc(C(C)O)c[n+](CCc2c[nH]c3ccccc23)c1 (stereo unspecified) | > 234 | > 234 µM | 
57 | CC(C)(C[NH-])C[NH-].[Cl][Pt+2][Cl] | > 676 | 2.04 µM | 
58 | Cn1c(=O)c2nc3c(=O)n(C)c(=O)n(CC(N)=O)c3nc2n(C)c1=O | > 200 | > 200 µM | 
59 | COc1ccc(/C=C/C(=O)CCN2CCN(CCC(=O)/C=C/c3ccc(OC)cc3)CC2)cc1 | > 151 | 1.58 µM | 
60 | N=C(N)CCNC(=O)c1c[nH]c2nc(N)[nH]c(=O)c12 | > 347 | > 347 µM | 
61 | COC(=O)/C=C(C)/C=C/c1c(C)c(C(C)=O)c(C)n1C | > 129 | > 129 µM | 
62 | Cn1ccnc1Oc1ccc(Cl)cc1 | > 200 | 9.77 µM | 
63 | Cc1cn2c(C)csc2c1P(=O)(OC(C)C)OC(C)C | > 200 | 158 µM | 
64 | C=CCN1CCC23c4c5ccc(O)c4OC2C(=NN=C2CCC4(O)C6Cc7ccc(O)c8c7C4(CCN6CC=C)C2O8)CCC3(O)C1C5 (stereo unspecified) | > 200 | 10.5 µM | 
65 | CCCCCCCCCCCC1CC(=O)NCCCN(C)CCCCN(C)CCCN1C (stereo unspecified) | > 200 | 1.12 µM | 
66 | CC(C)C1=Cc2ccc3c(c2C(=O)C1=O)CCCC3(C)C | > 18.6 | 2.95 µM | 
67 | COc1cc2cccc(NC(=O)c3cc(OC)c(OC)c(OC)c3Br)c2cc1OC |  |  | inactive
68 | CCCCCNP1(NCCCCC)=NP(NCCCCC)(NCCCCC)=NP(NCCCCC)(NCCCCC)=NP(NCCCCC)(NCCCCC)=N1 | > 50.1 | > 50.1 µM | 
69 | c1ccc(CN2COCO[C@H]3CCC[C@@H]32)cc1 | > 200 | 123 µM | 

Row | SMILES | EC50 [µM] | IC50 | outcome
70 | O=C1/C(=C/c2ccccc2)CN(C(=O)C(F)(F)F)C/C1=C\c1ccccc1 |  |  | inactive
71 | OC1CCSc2ccccc21 (stereo unspecified) | > 200 | > 200 µM | 
72 | COC1=C(C)C(=O)c2ncccc2C1=O |  |  | inactive
73 | O=C1C=C/C(=C/C(O)COC(=O)c2ccccc2)O1 (stereo unspecified) | > 138 | 77.6 µM | 
74 | O=Nc1ccccc1C(=O)O | > 151 | 47.9 µM | 
75 | CC1(C)O[C@@H](CC/C=C/CO)[C@H](CC/C=C/CO)O1 |  |  | inactive
76 | CSc1nc(Cl)c2c(n1)Sc1nc3cc4c(cc3n1C2O)OCO4 (stereo unspecified) | > 100 | 0.525 µM | 
77 | CCCCc1ccc(N2C(=O)c3cc(C)cnc3S2(=O)=O)cc1 | > 200 | > 200 µM | 
78 | COc1ccc2[nH]c(C[P+](c3ccccc3)(c3ccccc3)c3ccccc3)cc2c1 | > 200 | 12 µM | 
79 | CCOC(=O)C/C=C\S[C@@H]1[C@H](NC(=O)COc2ccccc2)C(=O)N1C(C(=O)OCc1ccc([N+](=O)[O-])cc1)=C(C)C | > 4.37 | > 4.37 µM | 
80 | Nc1ncnc2c1C=C(B(O)O)B(O)N2 | > 126 | 74.1 µM | 
81 | Cc1cccc(C)c1NC(=O)C(=O)Nn1c(NN)nc2ccccc2c1=O | > 676 | 525 µM | 
82 | CCOC(=O)c1cc(-c2ccccc2)c(OC)c(=O)nc1-c1ccccc1 | > 27.5 | > 27.5 µM | 
83 | COc1ccc2c(c1)CCN1CCCc3ccccc3C21 (stereo unspecified) | > 200 | 26.9 µM | 
84 | CC(C)C1NC(=O)[C@H](C)OC(=O)[C@@H](C(C)C)NC(=O)[C@@H](C)OC(=O)C(C(C)C)NC(=O)[C@H](C)OC1=O (stereo partly specified) | > 251 | > 251 µM | 
85 | CCN1C(=O)C(N2CCCCC2)S/C1=C\C(=O)O (stereo unspecified) | > 933 | 457 µM | 
86 | Cc1ccc(NC(=O)CC(=O)n2nc(C)c(N=Nc3ccccc3Cl)c2C)cc1 |  |  | inactive
87 | O=C([N-]/N=C/c1ccccc1)c1ccccc1[O-].[OH3+].[Zn+2] | 162 | 166 µM | 
88 | O=C(Nc1ccccc1)c1c(O)[nH]c(=O)[nH]c1=O | > 75.9 | 38.9 µM | 
89 | O=C1OC(=C(Cl)Cl)C2C3c4ccccc4C(c4ccccc43)C12 (stereo unspecified) | > 100 | 47.9 µM | 
90 | C[C@]12CC[C@H](OC(=O)/C=C\c3ccccc3N(CCCl)CCCl)CC1CC[C@@H]1C2CC[C@]2(C)NC(=O)CCC12 (stereo partly specified) |  |  | inactive
91 | [N-]=[N+]=NCCCCCCCCCCCC(=O)O | > 200 | 81.3 µM | 
